Data set [1] relates to LNCaP cells. In words: In vitro combination of CG5757 and chemotherapeutic agents. The format is cell-based, human. The protocol: (§1) Potential synergism between existing chemotherapeutic agents and the replication competent vectors of the present invention was investigated. Co-application of CG5757 with a variety of known chemotherapeutic agents was evaluated using an in vitro cell assay. A variety of known chemotherapeutic agents were tested in combination with CG5757 for their in vitro cytotoxic effect on Hep3B and LNCaP cells.

Data set [2] concerns Hep3B cells. The data set is described as above. The format is cell-based, human. The protocol: as §1

On to `CC(=O)O[C@H]1C(=O)[C@@]2(C)[C@H]([C@H](OC(=O)c3ccccc3)[C@]3(O)C[C@H](OC(=O)[C@H](O)[C@@H](NC(=O)c4ccccc4)c4ccccc4)C(C)=C1C3(C)C)[C@]1(OC(C)=O)CO[C@@H]1C[C@@H]2O` [Taxol], for which the “combination effect with CG5757” value in data set [1] is given as “potential synergistic cytotoxicity”.
As to `COc1cccc2c1C(=O)c1c(O)c3c(c(O)c1C2=O)C[C@@](O)(C(=O)CO)C[C@@H]3O[C@H]1C[C@H](N)[C@H](O)[C@H](C)O1` [doxorubicin], in data set [2], the “combination effect with CG5757” value is listed as “potential synergistic cytotoxicity”. In addition, the cytotoxicity result in data set [2] (5 ng/ml, agent alone) is “did not generate cytotoxicity”.

The values above are taken from patent publication US7473418B2, “Pan cancer oncolytic vectors and methods of use thereof” (Cell Genesys, Inc., priority 2004, dated 2009).
